# Calls of active or inactive are those of the source. The calls are words filed in the database; no cut-off is given here.
# Legend:
# [1] = Induction of mitotic arrest in human RPE-MYC cells transfected with BCL2 assessed as mitotic index at 50 nM measured after 24 hrs by DAPI staining based bright field microscopic analysis (reference value: 3.5%); assay type: functional
# [2] = target: Tubulin (Homo sapiens) (UniProt P68371+Q9H4B7+P0DPH7+P68366+Q13509+Q71U36+P04350+Q3ZCM7+P07437+P68363+Q9BQE3+Q6PEY2+Q13885+Q9BVA1+Q9BUF5); experiment: Stabilization of microtubule in human RPE-MYC cells transfected with BCL2 assessed as misaligned chromosomes in metaphase cells at 50 nM measured after 24 hrs by immunofluorescence staining based analysis; assay type: cell-based
# [3] = system: RPE; experiment: Inhibition of actin polymerization in human RPE-MYC cells transfected with BCL2 assessed as accumulation of polyploid cells with multilobular nuclei at 2 ug/ml measured after 48 hrs by immunofluorescence staining based analysis; assay type: cell-based; conditions: dose 2.0 µg/ml
# [4] = system: RPE; experiment: Inhibition of actin polymerization in human RPE-MYC cells transfected with BCL2 assessed as lagging chromosomes in anaphase at 2 ug/ml measured after 24 hrs by immunofluorescence staining based analysis; assay type: cell-based; conditions: dose 2.0 µg/ml
# [5] = system: RPE; experiment: Inhibition of actin polymerization in human RPE-MYC cells transfected with BCL2 assessed as chromosome misalignment in metaphase at 2 ug/ml measured after 24 hrs by immunofluorescence staining based analysis; assay type: cell-based; conditions: dose 2.0 µg/ml
# [6] = Induction of mitotic arrest in human RPE-MYC cells transfected with BCL2 assessed as mitotic index at 2 ug/ml measured after 24 hrs by DAPI staining based bright field microscopic analysis (reference value: 3.5%); assay type: functional; conditions: dose 2 µg/ml
SMILES,Activity [1],Activity [2],inhibition [3],inhibition [4],inhibition [5],Activity [6]
CC(=O)O[C@H]1C(=O)[C@@]2(C)[C@H]([C@H](OC(=O)c3ccccc3)[C@]3(O)C[C@H](OC(=O)[C@H](O)[C@@H](NC(=O)c4ccccc4)c4ccccc4)C(C)=C1C3(C)C)[C@]1(OC(C)=O)CO[C@@H]1C[C@@H]2O [PACLITAXEL],97.3%,inactive,,,,
C=C1[C@@H](C)[C@H]2[C@H](Cc3ccccc3)NC(=O)[C@]23OC(=O)/C=C/[C@H](O)CCC[C@@H](C)C/C=C/[C@H]3[C@@H]1O [CYTOCHALASIN B],,,Active,inactive,inactive,2.7%

# Reference: ChEMBL document CHEMBL5385867, “2-Phenoxy-3, 4'-bipyridine derivatives inhibit AURKB-dependent mitotic processes by disrupting its localization” (Eur J Med Chem, 2023)
